Data on one substance can be found in US20060094003A1, “Acetylcholine-dependent current as a novel ionic target for atrial fibrillation” (priority 2004, published 2006).

By IC50 is commonly meant the concentration at which inhibition is half-maximal.

Data set [1] addresses T1, Kir 3.1/3.4 currents (Homo sapiens, UniProt P48544+P48549).
T1 sequence (P48549 1-501): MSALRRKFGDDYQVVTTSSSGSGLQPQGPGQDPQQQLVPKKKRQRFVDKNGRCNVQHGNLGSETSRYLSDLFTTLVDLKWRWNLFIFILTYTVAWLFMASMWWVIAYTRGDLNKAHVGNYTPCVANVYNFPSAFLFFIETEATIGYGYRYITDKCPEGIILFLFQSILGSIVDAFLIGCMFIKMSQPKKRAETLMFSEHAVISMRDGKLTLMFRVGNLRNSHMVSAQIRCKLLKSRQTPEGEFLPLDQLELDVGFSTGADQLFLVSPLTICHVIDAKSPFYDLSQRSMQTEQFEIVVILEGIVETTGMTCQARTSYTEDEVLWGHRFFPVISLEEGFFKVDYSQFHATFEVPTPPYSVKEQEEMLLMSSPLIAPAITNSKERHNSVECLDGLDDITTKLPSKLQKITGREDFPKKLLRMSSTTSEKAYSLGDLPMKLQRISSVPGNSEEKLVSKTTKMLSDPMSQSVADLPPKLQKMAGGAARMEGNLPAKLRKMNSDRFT
T1 sequence (P48544 1-419): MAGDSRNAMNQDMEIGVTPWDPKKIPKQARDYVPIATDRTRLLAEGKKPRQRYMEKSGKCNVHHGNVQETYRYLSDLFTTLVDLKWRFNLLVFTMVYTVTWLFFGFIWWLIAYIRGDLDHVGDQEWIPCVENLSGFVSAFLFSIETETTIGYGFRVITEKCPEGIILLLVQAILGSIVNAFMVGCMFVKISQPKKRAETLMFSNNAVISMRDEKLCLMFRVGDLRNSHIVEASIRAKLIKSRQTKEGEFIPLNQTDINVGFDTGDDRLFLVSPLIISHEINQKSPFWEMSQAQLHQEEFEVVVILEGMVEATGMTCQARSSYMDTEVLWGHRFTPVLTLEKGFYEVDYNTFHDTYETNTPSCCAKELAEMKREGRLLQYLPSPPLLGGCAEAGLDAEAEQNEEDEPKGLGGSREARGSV
The settings on record: Jin & Lu, 1999; cited from earlier work.

The subject of data set [2] is AT-remodeled canine left atrial (LA) preparations. The data set can be described thus: Atrial tachyarrhythmia induction in AT-remodeled coronary-perfused LA preparations in vitro. The method, then:
Briefly, dogs were subjected to 7-13 days of AT at about 400 beats per minute (bpm). LA preparations were then coronary-perfused and studied intact in vitro or subjected to cardiomyocyte isolation. IKH was studied with patch clamp.
(§1) Adult dogs were divided into control and AT groups. AT dogs were initially anesthetized with diazepam (0.25 mg/kg IV), ketamine (5.0 mg/kg IV), and halothane (1% to 2%) for transvenous insertion of right ventricular (RV) and right atrial (RA) unipolar pacing leads connected to ventricular and atrial pacemakers implanted in the neck. Pacing began 24 hours after pacemaker implantation. AV block was created by radiofrequency catheter ablation and the RV demand-pacemaker was programmed to 80 bpm. The RA was then tachypaced (400 bpm) for 7-13 days.
(§2) On study days, dogs were anesthetized with pentobarbital (30 mg·kg^−1 I.V.) and artificially ventilated. Hearts and adjacent lung tissue were excised via a left thoracotomy and immersed in oxygenated Tyrode solution. For cell isolation, the proximal circumflex coronary artery was cannulated and distal ends of PV myocardial sleeves were marked with silk thread prior to enzyme perfusion with collagenase (100 U mL^−1, Worthington, type II), to facilitate identification after enzymatic digestion. PVs were well-perfused and single cardiomyocytes were isolated from all PVs. After isolation, cells were stored at 4° C. and studied within 12 hours.
(§3) For standard-microelectrode experiments and atrial-tachyarrhythmia induction, intact tissue preparations including the LA and adjacent PVs were mounted in a Plexiglas chamber and perfused via the left circumflex coronary artery with oxygenated Kreb's solution at 36±0.5° C. Fine-tipped microelectrodes (resistance 15-20 MΩ when filled with 3-mol/L KCL) coupled to a high-input impedance amplifier were used to record Action Potentials.
For atrial tachyarrhythmia induction, single S2-extrastimuli following 15 S1-stimuli at basic cycle lengths (CLs) of 150-400 ms with a 5-second pause to observe the response were used. All stimuli were twice-threshold, 2-ms pulses.

Data set [3] addresses IKs (Homo sapiens, UniProt P51787). The settings on record: at concentrations of 8 to 30 nM; cited from earlier work.
The target in data set [4] is IKr (Homo sapiens, UniProt Q12809). The settings on record: at concentrations of 8 to 30 nM; cited from earlier work.
The subject of data set [5] is AT-remodeled canine LA. The data set can be described thus: Action potential duration in AT-remodeled canine LA preparations. The conditions noted are these: for effect on action potential duration (in words): AT-remodeled canine LA. The method, then: as §1, §2, §3
Table 1 quantifies this increase in duration by presenting the time required for action potentials in 8 dogs to reach 90%, 50% and 25% repolarization. Results are averages over 24 and 23 action potentials respectively for the pre-TQ data and the post-TQ data.

In data set [6] the target is T2, Kir1 channels (Homo sapiens, UniProt P48048).
T2 sequence (P48048 1-391): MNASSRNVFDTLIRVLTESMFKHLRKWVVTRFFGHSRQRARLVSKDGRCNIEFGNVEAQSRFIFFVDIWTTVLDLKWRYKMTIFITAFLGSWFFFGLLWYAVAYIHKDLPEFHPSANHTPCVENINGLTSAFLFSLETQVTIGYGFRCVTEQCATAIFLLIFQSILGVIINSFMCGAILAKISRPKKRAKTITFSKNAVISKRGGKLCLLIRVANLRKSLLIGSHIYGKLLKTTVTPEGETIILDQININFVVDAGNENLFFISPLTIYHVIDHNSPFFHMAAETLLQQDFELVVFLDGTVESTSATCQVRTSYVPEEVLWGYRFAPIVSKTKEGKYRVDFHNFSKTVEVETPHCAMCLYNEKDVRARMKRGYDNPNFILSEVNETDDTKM
The settings on record: Jin & Lu, 1999; cited from earlier work.

Sequence of IKr (Q12809 whole entry): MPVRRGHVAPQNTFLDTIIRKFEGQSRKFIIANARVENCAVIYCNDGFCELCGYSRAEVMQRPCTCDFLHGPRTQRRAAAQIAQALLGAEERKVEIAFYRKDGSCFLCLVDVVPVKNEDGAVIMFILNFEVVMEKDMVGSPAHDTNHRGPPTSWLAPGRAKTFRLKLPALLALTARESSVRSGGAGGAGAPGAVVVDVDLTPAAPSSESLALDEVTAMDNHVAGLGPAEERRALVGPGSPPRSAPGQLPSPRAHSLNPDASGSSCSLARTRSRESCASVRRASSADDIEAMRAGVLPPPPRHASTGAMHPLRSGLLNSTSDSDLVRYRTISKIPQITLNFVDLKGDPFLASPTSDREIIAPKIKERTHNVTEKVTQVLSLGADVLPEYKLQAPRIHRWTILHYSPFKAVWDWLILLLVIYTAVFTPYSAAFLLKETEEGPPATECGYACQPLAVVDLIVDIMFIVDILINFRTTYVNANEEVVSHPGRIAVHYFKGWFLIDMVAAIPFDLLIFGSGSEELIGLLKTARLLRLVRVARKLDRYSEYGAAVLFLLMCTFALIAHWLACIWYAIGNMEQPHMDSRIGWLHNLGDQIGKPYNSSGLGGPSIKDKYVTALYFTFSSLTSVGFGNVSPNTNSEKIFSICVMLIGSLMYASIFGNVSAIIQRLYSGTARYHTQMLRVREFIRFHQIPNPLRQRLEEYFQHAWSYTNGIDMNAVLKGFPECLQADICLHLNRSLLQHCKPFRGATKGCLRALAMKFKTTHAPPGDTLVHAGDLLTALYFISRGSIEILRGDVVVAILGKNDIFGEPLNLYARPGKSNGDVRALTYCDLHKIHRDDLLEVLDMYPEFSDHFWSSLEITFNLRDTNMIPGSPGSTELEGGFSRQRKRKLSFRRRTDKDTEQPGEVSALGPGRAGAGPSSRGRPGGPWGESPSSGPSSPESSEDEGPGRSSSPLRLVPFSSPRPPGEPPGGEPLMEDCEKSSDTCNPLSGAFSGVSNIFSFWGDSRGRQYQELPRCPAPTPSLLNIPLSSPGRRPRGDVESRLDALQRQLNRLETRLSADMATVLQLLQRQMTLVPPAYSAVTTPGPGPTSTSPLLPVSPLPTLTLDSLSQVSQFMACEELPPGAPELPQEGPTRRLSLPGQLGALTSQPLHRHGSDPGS

As to tertiapin-Q, the IC50 is 8 nM in data set [1] and 2 nM in data set [6]. Moreover, the tachyarrhythmia cycle length in data set [2] (100 nM TQ, without TQ 108±0.3 ms) was determined as 179 ± 0.8 ms. Further, the mean tachyarrhythmia duration in data set [2] (100 nM TQ, without TQ 11602±604 ms) came to 520 ± 6 ms. Moreover, the “time to termination of arrhythmia after TQ administration” value in data set [2] (2 cases of tachyarrhythmia lasting uninterrupted for more than 20 minutes) was not above 4 min. Moreover, in data set [3], the “effect on IKs (in words)” value is on record as “no effect”. In addition, the “effect on IKr (in words)” value in data set [4] is listed as “no effect”. The same substance had an APD25 in data set [5] (2 Hz, AT-remodeled preparations, post-TQ, pre-TQ 15.9 ± 1.7) of 39.0 ± 2.5 ms. In data set [5] (2 Hz, AT-remodeled preparations, post-TQ, pre-TQ 44.4 ± 2.3), this substance registered an APD50 of 87.4 ± 2.7 ms. For the same substance, the APD90 in data set [5] (2 Hz, AT-remodeled preparations, post-TQ, pre-TQ 100.1 ± 2.6) came to 162.2 ± 4.2 ms. Moreover, the “effect on action potential duration (in words)” value in data set [5] was “greatly increases”; in data set [5] (listed as TQ) it was “prominently increased”.
